Structures are written as SMILES.

In assay [1] the target is T1, Receptor-type tyrosine-protein phosphatase C (Homo sapiens) (UniProt P08575).
T1 sequence (whole entry): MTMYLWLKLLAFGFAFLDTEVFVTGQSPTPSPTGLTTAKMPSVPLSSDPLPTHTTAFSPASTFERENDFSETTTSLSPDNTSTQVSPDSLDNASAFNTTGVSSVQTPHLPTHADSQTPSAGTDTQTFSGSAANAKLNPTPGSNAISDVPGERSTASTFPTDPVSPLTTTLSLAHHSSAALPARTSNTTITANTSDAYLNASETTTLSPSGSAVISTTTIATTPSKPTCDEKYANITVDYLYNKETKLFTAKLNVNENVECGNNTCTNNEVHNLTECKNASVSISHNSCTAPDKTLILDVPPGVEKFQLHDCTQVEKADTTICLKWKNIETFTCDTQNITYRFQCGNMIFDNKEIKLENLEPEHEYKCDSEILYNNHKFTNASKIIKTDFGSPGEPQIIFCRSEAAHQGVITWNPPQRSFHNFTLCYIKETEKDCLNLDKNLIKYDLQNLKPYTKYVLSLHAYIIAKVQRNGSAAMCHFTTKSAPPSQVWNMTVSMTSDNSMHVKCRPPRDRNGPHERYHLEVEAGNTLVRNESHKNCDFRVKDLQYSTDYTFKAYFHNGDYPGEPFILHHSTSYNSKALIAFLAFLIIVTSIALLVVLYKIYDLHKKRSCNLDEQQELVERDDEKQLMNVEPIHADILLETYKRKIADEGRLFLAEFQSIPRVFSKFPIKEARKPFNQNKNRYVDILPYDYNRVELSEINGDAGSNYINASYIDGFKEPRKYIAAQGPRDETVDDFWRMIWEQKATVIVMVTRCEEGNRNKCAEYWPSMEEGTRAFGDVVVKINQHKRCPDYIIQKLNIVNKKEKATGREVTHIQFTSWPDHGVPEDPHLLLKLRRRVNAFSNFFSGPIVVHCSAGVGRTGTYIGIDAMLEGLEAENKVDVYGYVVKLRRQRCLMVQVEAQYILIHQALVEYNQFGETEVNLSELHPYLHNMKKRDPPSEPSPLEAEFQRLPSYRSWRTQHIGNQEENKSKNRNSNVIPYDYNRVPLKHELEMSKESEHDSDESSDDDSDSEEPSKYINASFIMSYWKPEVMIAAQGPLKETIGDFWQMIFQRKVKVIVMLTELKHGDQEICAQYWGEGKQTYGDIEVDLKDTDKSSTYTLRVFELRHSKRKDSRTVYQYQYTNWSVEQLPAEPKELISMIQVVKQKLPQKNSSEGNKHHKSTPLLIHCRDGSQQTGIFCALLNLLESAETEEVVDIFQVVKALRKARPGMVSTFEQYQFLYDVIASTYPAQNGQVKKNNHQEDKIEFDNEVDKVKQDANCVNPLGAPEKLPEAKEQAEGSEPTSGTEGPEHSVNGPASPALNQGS
Put plainly: Inhibition of CD45 protein-tyrosine phosphatase of Jurkat cell membrane at 500 uM. The class given is cell-based.

The target in assay [2] is T2, Receptor-type tyrosine-protein phosphatase C (Homo sapiens, UniProt P08575).
T2 sequence (P08575 whole entry): T1 sequence (whole entry)
Put plainly: Tested for inhibitory activity against CD45 protein-tyrosine phosphatase of Jurkat cell membrane at 1000 uM. The format is cell-based.

Assay [3] deals with T1, Receptor-type tyrosine-protein phosphatase C (Homo sapiens). Put plainly: Compound was tested for its inhibitory activity against CD45 protein-tyrosine phosphatase of Jurkat cell membrane at 1000 uM concentration. The class given is cell-based.
Assay [4] has the same target. The experiment in a line: Compound was tested for its inhibitory activity against CD45 protein-tyrosine phosphatase of Jurkat cell membrane at 250 uM concentration. The class given is cell-based.
The target in assay [5] is T3, Prostatic acid phosphatase (Homo sapiens, UniProt P15309).
T3 sequence (P15309 whole entry): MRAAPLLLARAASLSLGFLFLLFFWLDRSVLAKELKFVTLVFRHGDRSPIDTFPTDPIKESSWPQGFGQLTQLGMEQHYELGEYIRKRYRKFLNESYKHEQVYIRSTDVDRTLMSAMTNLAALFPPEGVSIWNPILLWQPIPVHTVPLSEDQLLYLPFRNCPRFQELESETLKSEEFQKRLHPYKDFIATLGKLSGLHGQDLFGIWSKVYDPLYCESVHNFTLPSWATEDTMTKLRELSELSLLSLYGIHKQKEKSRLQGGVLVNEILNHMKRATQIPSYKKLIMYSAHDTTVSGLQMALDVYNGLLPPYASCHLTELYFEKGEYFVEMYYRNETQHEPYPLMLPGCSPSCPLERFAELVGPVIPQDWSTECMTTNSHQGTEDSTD
Put plainly: Compound was tested for its inhibitory activity against human prostatic acid phosphatase.

The nature of assay [6]: Compound was tested for its inhibitory activity against Osteoclastic acid phosphatase. On the set-up: species or system Homo sapiens.

As usually defined, the inhibition is the share of the control response that was lost under treatment. A higher inhibition goes with a strong effect. Turning to `O=[N+]([O-])c1cc(C(O)P(=O)(O)O)cs1` (stereo unspecified), in assay [1], the inhibition came to 93%.
As to `O=P(O)(O)C(O)c1cccc(Cl)c1` (stereo unspecified), in assay [1], the inhibition was determined as 49%.
Same read-out and setting: then `O=P(O)(O)C(O)c1ccccn1` (stereo unspecified), with 2%.
On the same count and under the same terms, under `COc1ccc(C(O)P(=O)(O)O)cc1` (stereo unspecified) stands 42%.
As a reminder, the IC50 is the concentration that inhibits the measured activity by half. A low value points to inhibition by little substance. `O=[N+]([O-])c1ccc(C(O)P(=O)(O)O)cc1` (stereo unspecified): in assay [2], the half-maximal inhibitory concentration (IC50) is 28 µM. For the same molecule, the inhibition in assay [3] turned out to be 98%.
As to `O=P(O)(O)C(NCc1ccccc1)c1cccc2ccccc12` (stereo unspecified), in assay [4], the inhibition amounted to 23%. Half-maximal inhibition in assay [5] (IC50) was put at 0.0086 µM.
For the molecule `O=P(O)(O)C(O)c1cccc2ccccc12` (stereo unspecified), the inhibition in assay [3] was determined as 53%.
Consider `Nc1cccc(C(O)P(=O)(O)O)c1` (stereo unspecified), for which, in assay [1], the inhibition is 23%.
Same read-out and setting: under `CS(=O)(=O)c1ccc(C(O)P(=O)(O)O)cc1` (stereo unspecified) stands 41%.
In assay [1], `O=P(O)(O)C(O)c1cccc(O)c1` (stereo unspecified) registered an inhibition of 0%.
Still for that read-out and setting: then `O=[N+]([O-])c1cccc(CP(=O)(O)O)c1`, with 17%.
`N#Cc1cccc(C(O)P(=O)(O)O)c1` (stereo unspecified): the inhibition in assay [3] was 49%.
In the case of `O=C(c1ccccc1)C(C(=O)c1ccccc1)(c1cccc2ccccc12)P(=O)(O)O`, the inhibition in assay [1] is 8%. In addition, the IC50 in assay [6] is 1.4 µM.
Turning to `O=[N+]([O-])c1cc(C(O)P(=O)(O)O)ccc1O` (stereo unspecified), in assay [3], the inhibition worked out at 8%.
`Cc1cccc(C(O)P(=O)(O)O)c1` (stereo unspecified): the inhibition in assay [1] amounted to 27%.
The molecule `CC(O)(c1cccc([N+](=O)[O-])c1)P(=O)(O)O` (stereo unspecified) came in with an IC50 in assay [2] of 58 µM. For the same molecule, the inhibition in assay [3] was found to be 97%.
In the same order, the values of `O=[N+]([O-])c1cccc(C(O)P(=O)(O)O)c1` (stereo unspecified) are 10 µM and 93%.
In assay [1], `O=P(O)(O)C(O)c1cccnc1` (stereo unspecified) had an inhibition of 13%.
The molecule `O=[N+]([O-])c1ccc(SC2CCCCC2)c(C(O)P(=O)(O)O)c1` (stereo unspecified) showed an inhibition in assay [1] of 99%.
Same read-out and setting: then `O=P(O)(O)C(O)c1ccnc2ccccc12` (stereo unspecified), with 58%; and `O=P(O)(O)C(O)c1ccncc1` (stereo unspecified), with 0%; and `O=P(O)(O)C(O)c1ccc2ccccc2c1` (stereo unspecified), with 59%.
Still for that read-out and setting: then `O=[N+]([O-])c1ccc(O)c(C(O)P(=O)(O)O)c1` (stereo unspecified), with 75%.
The molecule `O=P(O)(O)C(O)c1ccccc1` (stereo unspecified) yielded an inhibition in assay [3] of 39%.
Molecule `Cc1cccc(C(c2ccccc2)P(=O)(O)O)c1` (stereo unspecified) gave an inhibition in assay [1] of 8%.
On to `O=[N+]([O-])c1ccc(Cl)c(C(O)P(=O)(O)O)c1` (stereo unspecified), for which, in assay [1], the inhibition is 81%.

(Values after ChEMBL document CHEMBL1130370, “Novel hydroxyphosphonate inhibitors of CD-45 tyrosine phosphatase” (Bioorg Med Chem Lett, 1997).)
